Source: patent publication US6103888A, “Mammalian cationic proteins having lipopolysaccharide binding and anti-coagulant activity” (priority 1999, dated 2000)

Key:
[1] = test system: Human plasma; test: Prothrombin time (PT); assay type: biochemical
Description: Prothrombin time (PT). Human plasma (100 μl) was incubated with 100 μl of each peptide at 37° C. for 3 min., then 100 μl of tissue factor (250 μg/ml) CaCl2 was added and clotting time was measured.

[2] = test system: Salmonella minnesota ReLPS sensitized sheep erythrocytes; test: LPS hemagglutination assay (MAC); assay type: binding
Description: For hemagglutination assays, erythrocytes were sensitized with LPS as follows. One ml of 1% erythrocyte suspension (human 0 type, C3H/HeN mouse or sheep) was mixed with 0.2 ml of LPS solution and incubated at 37° C. for 30 min, followed by washing with phosphate buffered saline (PBS), and then the concentration of suspension was adjusted to 1.0%. In the case of S-LPS, the solution was heated at 100° C. for 1 hour before sensitization of erythrocytes. […] Activity of CAP was expressed as a minimum agglutinating concentration (MAC) of CAP. According to the method of Kirikae et al. (1986) Microbiol. Immunol. 30:269-274, 50 μl of 2-fold serial dilution of Re-LPS was added to 50 μl of 1.0% rabbit erythrocyte suspension, and incubated at 37° C. for 3 hour. Minimum agglutinating concentration of Re-LPS was expressed as 1 HA unit.

[3] = test system: Pseudomonas aeruginosa; test: Bacterial proliferation, 3H-thymidine incorporation assay; assay type: cell-based
Description: (§1) Bacteria were grown in trypticase broth overnight.
(§2) To corroborate the anti-bacterial activity shown in the CFU assays, inhibition of proliferation of bacteria was tested directly using a ^3 H-thymidine incorporation assay. […] In summary although there is some strain to strain variation in the IC50, all of the Gram-negativestrains tested in two different types of assays were sensitive to these anti-microbial peptides.

[4] = test system: Streptococcus pneumoniae; test: as above; assay type: cell-based
Description: as §1, §2

[5] = test system: Human plasma; test: Partial thromboplastin time (PTT); assay type: biochemical; conditions: dose dependent
Description: Partial thromboplastin time (PTT). Human plasma (100 μl) was incubated with each peptide (100 μl) at 37° C. for 3 min., then 100 μl of CaCl2 containing phospholipid was added and clotting time was measured.

[6] = molecular target: prothrombin (factor II) (Homo sapiens, UniProt P00734); test: Prothrombin activation by Echis Carinatus venom (ECV); assay type: biochemical
Description: Prothrombin activation by Echis Carinatus venom (ECV). A reaction mixture of prothrombin (factor II) (0.1 unit/ml, 200 μl), ECV (1 unit/ml, 200 μl), various concentration of peptide (70 μl), 50 μl of 25 mM-CaCl2 and 180 μl of Tris buffer was incubated at 37° C. for 10 min. To 300 μl of the reaction mixture, 60 μl of 4 mM-thrombin substrate and 240 μl of buffer was added and further incubated for 15 min.

[7] = test system: E. coli O9:K39 K+ strain; test: Antibacterial CFU assay
[8] = test system: RAW 264.7 cells; test: Reversal of LPS-induced inhibition of cell proliferation; assay type: cell-based, murine; conditions: cultures containing 5 ng/ml of LPS
Description: When LPS is added to RAW 264.7 cells it causes a dose-dependent inhibition of proliferation with differentiation of the cells into a macrophasge phenotype.

[9] = test system: thioglycollate-stimulated murine peritoneal macrophages; test: LPS-induced tissue factor generation by macrophages (clotting assay); assay type: cell-based
Description: Tissue factor assay. Salmonella minnesota smooth LPS was incubated with each peptide (1 μg/ml) for 5 min., then the mixture was added to peritoneal murine macrophages obtained 4 days after thioglycollate stimulation. Cells were cultured for 6 hours prior to assay of tissue factor by clotting assay.
Various concentrations of Salmonella minnesota smooth LPS were incubated with each peptide (197 (RNIP), 36-1, 32-1, and 50-2) at 37° C. for 5 minutes prior to mixing with thioglycollate-stimulated murine peritoneal macrophages. Production of tissue factor after 6 hr. was measured by clotting assay. […] In the absence of LPS no tissue factor is synthesized by these cells.

[10] = molecular target: T1, factor X (Homo sapiens, UniProt P00742); test: Factor X activation by tissue factor and factor VII, synthetic substrate S-2222; assay type: biochemical; conditions: synthetic substrate; listed as 197
T1 construct: purchased Sigma Chemical Co., St. Louis, Mo
T1 sequence (P00742 183-488): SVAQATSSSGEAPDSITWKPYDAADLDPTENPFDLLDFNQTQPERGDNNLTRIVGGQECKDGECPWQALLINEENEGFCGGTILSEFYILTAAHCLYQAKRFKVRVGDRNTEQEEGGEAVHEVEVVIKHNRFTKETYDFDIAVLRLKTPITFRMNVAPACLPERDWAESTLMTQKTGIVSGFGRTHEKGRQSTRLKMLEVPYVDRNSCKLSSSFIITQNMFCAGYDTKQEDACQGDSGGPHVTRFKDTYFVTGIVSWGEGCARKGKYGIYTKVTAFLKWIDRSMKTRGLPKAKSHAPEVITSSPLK
T1 sequence (P00742 41-179): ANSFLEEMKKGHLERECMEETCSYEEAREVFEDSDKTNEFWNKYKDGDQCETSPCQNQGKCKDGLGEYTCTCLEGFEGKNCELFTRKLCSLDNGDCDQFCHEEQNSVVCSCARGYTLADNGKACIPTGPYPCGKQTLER
Description: Factor Xa activity using synthetic substrate. A reaction mixture of factor VII (1 unit/ml, 200 μl), factor X (1 unit/ml, 200 μl), tissue factor (2.5 mg/ml, 50 μl), 25 mM-CaCl2 (50 μl) and 50 μl of several concentration of peptide was incubated at 37° C. for 10 min. To 200 Al of the reaction mixture, 60 μl of 4 mM S-2222, a synthetic substrate for factor Xa, and 340 μl of Tris-HCl buffer, pH 8.2, was added and further incubated for 15 min. The reaction was stopped by adding 60 μl of 50% acetic acid, and OD for p-nitroaniline was read at 405 nm.

[11] = test system: thioglycolate elicited murine peritoneal exudate cells; test: RNI generation by thioglycolate elicited peritoneal exudate cells; assay type: cell-based; conditions: for RNI: RNIP 50 nm
Description: From the sequence of the CAP18 cDNA, it was apparent that the putative N-terminal peptide of CAP18 was in fact an internal fragment of the CAP18 protein. We therefore tried to reconfirm the original protein sequence. Neutrophil-derived heparin bound cationic proteins were prepared as described above and applied to a C18 reverse phase HPLC (FIG. 1). We sequenced the major peaks. Peaks at fractions 14.5 and 15.2 correspond to defensins MCP1 and MCP2 (Territo et al. (1989) J. Clin. Invest. 84:2017-2019), respectively. Fraction 25.8 is macrophage related protein 14 (MRP14) (Odink et al. (1987) Nature 330:80-82). The fraction at 20.3 minutes corresponds to a fragment of CAP18 of approximately 4-5 kD. […] The murine macrophage cell line RAW 264.7 (obtained from ATCC) and thioglycollate-elicited murine peritoneal exudate cells are used to produce RNI. Cells are cultured at 1×10^6 /ml. in RPMI-1640 +2.5% FCS in 24 well plates in the presence or absence of different concentrations of LPS or murine rlFNγ. After 24 hr. incubation at 37° C., the cell free supernatant is collected and tested for the presence of RNI. Accumulation of nitrite in the medium is measured by a calorimetric assay based on the Griess reaction (Green et al. (1982) Anal. Biochem. 126:11) using sodium nitrite as standards. Sample (50 μl) is mixed with 50 μl of Griess reagent (1% sulfanilamide, 0.1% naphthalene diamine dihydrochloride, 2.5% H3 PO4) and after 10 min. at room temperature absorbance is read at 570 nm.

For “RNIP: rabbit reactive nitrogen inhibitory protein, amino acids 135-171 of SEQ ID NO:4; purified from granulocytes (Tables 1-3) or synthetic (#197) (GLRKRLRKFRNKIKEKLKKIGQKIQGLLPKLAPRTDY)”, the “inhibition of the prothrombin time (PT), in words” value [1] was “inhibited”, the “Hemagglutination [MAC], minimum agglutinating concentration” value [2] was 7.9 µg/mL and the “Percent inhibition of proliferation” value ([3]; RNIP 0.6 μg/ml) was 75%. The “Percent inhibition of proliferation” value ([3]; RNIP 1.25 μg/ml) was 82%, the “Percent inhibition of proliferation” value ([3]; RNIP 2.5 μg/ml) was 96% and the “Percent inhibition of proliferation” value ([3]; RNIP 5.0 μg/ml) was 99%. For the same substance, the “Percent inhibition of proliferation” value ([4]; RNIP 0.6 μg/ml) was 31%, the “Percent inhibition of proliferation” value ([4]; RNIP 1.25 μg/ml) was 47% and the “Percent inhibition of proliferation” value ([4]; RNIP 2.5 μg/ml) was 68%. For the same substance, the “Percent inhibition of proliferation” value ([4]; RNIP 5.0 μg/ml) was 93%, the “inhibition of the partial thromboplastin time (PTT), in words” value [5] was “inhibited” and the “inhibition of Echis carinatus venom activation of purified factor II to IIa (in words)” value [6] was “inhibited”. For the same substance, the “IC50, anti-bacterial activity” value [7] was 0.14 µg/mL, the IC50 ([7]; read-out: IC50, anti-bacterial activity) was 20 nM and the “effect on LPS-induced inhibition of RAW 264.7 cell proliferation” value [8] was “reverses the inhibition of proliferation”. For the same substance, the “inhibition of LPS-induced tissue factor generation, peptide added after LPS” value ([9]; added as late as 3 hours after the LPS stimulus) was “Significant inhibition”, the “inhibition of LPS induced tissue factor (in words)” value ([9]; peptides 1 μg/ml incubated with S. minnesota smooth LPS 5 minutes, 6 hr) was “inhibition” and the “IC50, Tissue factor VII, X to Xa” value [10] was 0.3 to 0.7 µg/mL. For the same substance, the RNI ([11]; IFNγ 500 U/ml, without RNIP 4.0 ± 0.8) was 1.1 µM, the IC50 ([11]; IFNγ stimulated, read-out: IC50 for inhibition of gamma interferon stimulated nitrogen radical release) was < 50 nM and the RNI ([11]; LPS + IFNγ 1 ng + 500 U/ml, without RNIP 26 ± 0.6) was 14 ± 0.7 µM.
